Marks after values point to notes of the source that are not given here.
Tests used:
[1] = tested on: adult male CF-1 mice; test: Foot electroshock stress induced cGMP elevation model for anxiety; assay type: in vivo; settings: normalized to vehicle/no stress group, mean
Source text: The foot electroshock stress induced cGMP elevation model for anxiety is an established anxiety model, wherein stress from an unavoidable electroshock to the feet induces an elevation in cerebellar cGMP levels, which elevation is reduced or blocked by preadministration of anxiolytic compounds (Sethy and Oien (1991), Pharmacology Biochemistry & Behavior, vol. 39, pg. 379-382). Briefly, adult male CF-1 mice (25-30 g Harlan, Indianapolis, Ind.) are housed under a 12-hr light/dark cycle in a temperature and humidity controlled environment. Mice are habituated to the environment for at least 3 days and all studies are carried out between 9:00 AM and 12:00 noon to reduce the effects of diurnal fluctuations. Test mice are given a single intraperitoneal injection of test compound or control (vehicle is 3% DMSO, 20% emulphor stock, 10% lactic acid stock) and are sacrificed approximately 30 min. after dosing, using a beam of microwave radiation (microwave fixation system model GA5013; Gerling Applied Engineering, Modesto, Calif.) focused on the skull for 0.5 sec. at high power setting. This method preserves tissue cGMP content. After microwaving, a small piece (10-20 mg) of cerebellar cortex is quickly removed from the skull. The tissue is weighed and then homogenized in 2 ml of 1.0% perchloric acid. Tissue homogenate is kept on ice for 30 min followed by 5 min. in a boiling water bath. The homogenate is then centrifuged at 11,700 g for 20 min. 1 mL of supernatant is then acetylated with 40 μl of triethylamine and 20 μl of acetic anhydride, vortexed, and centrifuged at 13,000 g for 20 min at 4° C. Acetylated mouse cerebellum samples are stored at 4° C. pending cGMP analysis by radioimmunoassay with the cGMP ^125I Flash Plate radioimmunoassay test kit (PerkinElmer Life and Analytical Sciences, Boston, Mass.) on duplicate samples from each animal as per manufacturer's instructions.
For stressed mouse groups, 30 min. post injection, mice are subjected to a 1.0 mA foot-shock for 10 sec. in a Habitest Operant cage equipped with a modular shock floor (Habitest Modular Test System, Coulbourn Instruments, Allentown, Pa.). Mice are then sacrificed and cerebellar cortex samples are processed as described.
For each animal, cGMP levels are normalized to wet tissue weight and used to compute group averages and S.E.M. (typically 4-6 mice per group). All data are analyzed on the log scale to correct problems with heterogeneity of variance. Statistical analyses are performed using ANOVA followed by Dunnett's method to compare each treatment group to the vehicle group.

[2] = tested on: Male Sprague Dawley rats; test: Formalin model of persistent pain; assay type: in vivo; settings: formalin into hind paw
Experimental: The “formalin model” of persistent pain, particularly for inflammatory pain and neuropathic pain, is well known and can be used to test compounds for pain blocking and/or analgesic activity. (see Shibata M. et al., Pain (1989) 38: 347-352; and Tjolsen A. et al., Pain (1992) 51:5-17.)
Male Sprague Dawley rats (Harlan Labs, Indianapolis, Ind.) weighing between 200-250 g are maintained at constant temperature (21-23° C.) and light (12 hr. light/12 hr. dark), with free access to food and water for 7 days prior to testing. All testing is conducted during the light cycle after fasting over night and with the testing room temperature maintained at constant temperature (21-23° C.). […]
The animals are administered either vehicle or test compound and individually placed in holding cylinders. […] The cylinders are then placed on the load cells of the detection system and the response monitored continuously for 60 min. in 1-second bins (i.e. collections periods). As previously described by Jett and Michelson, the formalin-induced movements, “events,” detected by the system include licking and flinching the affected paw. […]
Data are evaluated by one-way analysis of variance (ANOVA) and the appropriate contrasts analyzed by the Dunnett ‘t’ test for 2-sided comparisons using JMP statistical analysis program (v5.1.1 SAS Institute Inc., Cary, N.C.). […]

[3] = target: T1, 5-HT7 receptor (Homo sapiens, UniProt P34969); test: Functional antagonist assay: measurement of cAMP formation; assay type: cell-based
T1 construct: expressed in transfected cells; host or cells: AV-12 cells
Experimental: For cAMP functional assays, the 5-HT7-expressing cells from above are grown in 150 cm^2 flasks and processed essentially as follows. The media is aspirated from the flasks and cells are washed with 1 mL PBS. The cells are trypsinized and resuspended in complete media. A sample of the cells is counted and the remainder is centrifuged as above for 3 min. The resulting cell pellet is resuspended in PBS at a concentration of 1×10^6 cells per mL and used directly in the cAMP assay as described.
The 5-HT7 receptor is functionally coupled to a G-protein as measured by the ability of serotonin and serotonergic drugs to stimulate cAMP production in CHO cells transfected with the 5-HT7 receptor. (Ruat, et al., Proceedings of the National Academy of Sciences (USA), 90:8547-8551, 1993.) Accordingly, functional receptor activity can be measured by measuring adenylate cyclase activity using a commercially available cell-based, homogeneous, time resolved fluorescence assay kit, as for example the kit produced by Cisbio-US, Inc. (Bedford, Mass.). Essentially, and using the protocol and reagents provided by the manufacturer, approximately 20,000 human 5-HT7 receptor-expressing AV-12 cells (as described above) are used with test compound dose concentrations in the range described for the binding assay. […] A cAMP standard curve is also run in every experiment. After the assay plates are read in an Envision™ instrument (Perkin-Elmer, Wellesley Mass.), the data is normalized to the standard curve and converted to percent inhibition for data analysis as described above for the receptor binding assay results. The Kb (nM) is calculated as a measure of the antagonist potency of the compound.

[4] = tested on: male Harlan Sprague-Dawley rats; test: Animal model of dural plasma protein extravasation (PPE); assay type: in vivo; settings: saline controls approximately 2.0, full prevention approximately 1.0
Source text: The dural plasma protein extravasation model is an established model for migraine. The ability of a test compound to reduce extravasation of plasma proteins into the dura under assay conditions is considered indicative of the compound's ability to reduce or prevent the dural inflammation thought to be symptomatic of migraine. (see Johnson, K. W., et al., Neuroreport, 8 (1997) 2237-2240.)
To assay compounds for their ability to reduce or prevent dural plasma protein extravasation, male Harlan Sprague-Dawley rats (250-350 g) are anesthetized with sodium pentobarbital (65 mg/kg, i.p.) and placed in a stereotaxic frame (David Kopf Instruments) with the incisor bar set at −2.5 mm. Following a midline sagital scalp incision, 2 pairs of bilateral holes are drilled through the skull (3.2 mm posterially, 1.8 and 3.8 mm laterally, all coordinates referenced to bregma). […]
The amount of FITC-BSA for each sample is quantified with a fluorescence microscope (Zeiss) equipped with a grating monochromator, a spectrophotometer, and a computer driven stage. Fluorescence measurements are taken at 25 points in a 5×5 grid in 500 μm steps on each dural sample with an excitation wavelength of approximately 490 nm and emission intensity measured at approximately 535 nm. The mean and standard deviation of the 25 measurements are determined. […]

[5] = tested on: Male Sprague Dawley rats; test: L5/L6 nerve ligation model (Chung model) of persistent pain; assay type: in vivo; settings: i.p.
Experimental: The L5/L6 Nerve Ligation model (Chung model) is a well established model for persistent pain, specifically neuropathic pain. Surgery is performed on male Sprague Dawley rats (Harlan, Indianapolis, Ind.), weighing 150-200 g at the time of surgery as previously described (Kim and Chung, 1992). Briefly, neuropathic injury is produced by tightly ligating the left L5 and L6 spinal nerves under gas anesthesia with a mixture of isoflurane (3% for induction and 2% for maintenance) and O2. Following surgery, development of neuropathic pain is evaluated daily by measuring mechanical sensitivity of the injured paw to von Frey filaments with incremental bending forces (0.5-15 g) as described by (Chaplan et al., 1994). […] Test drug or vehicle is administered i.p. and the mechanical threshold for paw flinching is measured at 0.5, 1, 2, 3, 4 and 6 hr. after dosing. Measurement of the mechanical threshold for paw flinching is also done prior to surgery (preoperative control). Data are expressed as the threshold force required to elicit a response (g) as means±S.E.M. (standard error of the mean).

T1 sequence (P34969 whole entry): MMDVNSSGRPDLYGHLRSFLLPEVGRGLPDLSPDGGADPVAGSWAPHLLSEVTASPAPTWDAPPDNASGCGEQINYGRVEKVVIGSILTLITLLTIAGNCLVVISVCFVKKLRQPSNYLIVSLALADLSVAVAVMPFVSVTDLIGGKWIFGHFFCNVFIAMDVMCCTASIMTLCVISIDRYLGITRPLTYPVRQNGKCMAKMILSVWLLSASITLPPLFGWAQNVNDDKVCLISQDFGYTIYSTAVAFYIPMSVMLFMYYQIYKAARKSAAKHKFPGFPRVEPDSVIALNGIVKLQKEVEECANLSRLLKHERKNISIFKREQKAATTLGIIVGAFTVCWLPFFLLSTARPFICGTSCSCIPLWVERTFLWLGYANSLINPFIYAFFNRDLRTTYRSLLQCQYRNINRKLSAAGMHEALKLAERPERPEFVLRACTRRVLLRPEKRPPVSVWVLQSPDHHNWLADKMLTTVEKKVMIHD

Cc1nnc2n1-c1ccc(Cl)cc1C(c1ccccc1)=NC2 [Alprazolam, alprazolam]
cerebellar cGMP, stress ([1]; 1 mg/kg (ip, 30 min)/stress): 60* percent

CNC1=Nc2ccc(Cl)cc2C(c2ccccc2)=[N+]([O-])C1 [Chlordiazepoxide, chlordiazepoxide]
cerebellar cGMP, stress ([1]; 10 mg/kg (ip, 30 min)/stress): 129%
cerebellar cGMP, stress ([1]; 30 mg/kg (ip, 30 min)/stress): 106* percent
cerebellar cGMP, stress ([1]; 60 mg/kg (ip, 30 min)/stress): 71* percent

Cc1c(CN2CCN(c3nccnc3-c3ccc(F)cc3)CC2)cnn1-c1ccccc1.Cl [Example 19, 4-(5-methyl-1-phenyl-1H-pyrazol-4-ylmethyl)-3′-(4-fluorophenyl)-3,4,5,6-tetrahydro-2H-[1,2′]bipyrazine hydrochloride]
formalin-induced events, early and late phases [2]: active on both the early and late phases

Cl.Cn1cc(CN2CCN(c3cccnc3-c3ccc(F)cc3)CC2)cn1 [Example 74, 1-[2-(4-Fluoro-phenyl)-pyridin-3-yl]-4-(1-methyl-1H-pyrazol-4-ylmethyl)-piperazine hydrochloride]
Kb ([3]; antagonist potency, cAMP, 5-HT7-expressing AV-12 cells): ~44 nM
antagonist character at the 5-HT7 receptor ([3]; cAMP formation): full antagonist
inhibition ([3]; cAMP formation, 5-HT7-expressing AV-12 cells): about 96%

Cc1c(CN2CCN(c3nccnc3-c3cccc(F)c3)CC2)cnn1C.Cl [Example 127, 4-(1,5-Dimethyl-1H-pyrazol-4-ylmethyl)-3′-(3-fluoro-phenyl)-3,4,5,6-tetrahydro-2H-[1,2′]bipyrazinyl hydrochloride]
ratio of extravasation in the dura, stimulated side over unstimulated side [4]: about 1.16

Cc1ccc(-c2nccnc2N2CCN(Cc3cn(C)nc3C)CC2)cc1.O=C(O)/C=C/C(=O)O [Example 186, 4-(1,3-Dimethyl-1H-pyrazol-4-ylmethyl)-3′-(4-methylphenyl)-3,4,5,6-tetrahydro-2H-[1,2′]bipyrazine fumarate]
threshold force required to elicit a response (mechanical allodynia) [5]: active
cerebellar cGMP, stress ([1]; 3 mg/kg (ip, 30 min)/stress): 278%
cerebellar cGMP, stress ([1]; 10 mg/kg (ip, 30 min)/stress): 264%
cerebellar cGMP, stress ([1]; 30 mg/kg (ip, 30 min)/stress): 234%
cerebellar cGMP, stress ([1]; 60 mg/kg (ip, 30 min)/stress): 117* percent

CC1CCN(CC[C@H]2CCCN2S(=O)(=O)c2cccc(O)c2)CC1 [SB-269970]
cerebellar cGMP, stress ([1]; 3 mg/kg (ip, 30 min)/stress): 270%
cerebellar cGMP, stress ([1]; 10 mg/kg (ip, 30 min)/stress): 225%
cerebellar cGMP, stress ([1]; 30 mg/kg (ip, 30 min)/stress): 171* percent

— patent US8202873B2, “2-[4-(pyrazol-4-ylalkyl)piperazin-1-yl]-3-phenyl pyrazines as 5-HT7 receptor antagonists” (Eli Lilly and Company, priority 2007, dated 2012)
